The numbers were not newly measured in US20220095646A1, “METHODS FOR THE PRODUCTION AND USE OF MYCELIATED AMINO ACID-SUPPLEMENTED FOOD COMPOSITIONS” (MycoTechnology, Inc., priority 2019, published 2022), which cites them from elsewhere.

With `N[C@@H](CC(=O)O)C(=O)O` [Aspartic acid], the “Taste thresholds (Kato et al. 1989), sour” value is reported as 0.03 mg/mL and the “Taste thresholds (Kato et al. 1989), umami” value was 1 mg/mL.

Consider `N[C@@H](CCC(=O)O)C(=O)O` [Glutamic acid], for which the “Taste thresholds (Kato et al. 1989), sour” value is 0.05 mg/mL and the “Taste thresholds (Kato et al. 1989), umami” value was 0.3 mg/mL.

For the molecule `CC[C@H](C)[C@H](N)C(=O)O` [Isoleucine], the “Taste thresholds (Kato et al. 1989), bitter” value is given as 0.9 (bitter) mg/mL.

On to `NCCCC[C@H](N)C(=O)O` [Lysine], for which the “Taste thresholds (Kato et al. 1989), sweet and bitter” value (sweet and bitter) was 0.5 (sweet and bitter) mg/mL.

Consider `C[C@@H](O)[C@H](N)C(=O)O` [Threonine], for which, under “sweet”, the “Taste thresholds (Kato et al. 1989), sweet” value is 2.6 (sweet) mg/mL.

In the case of `CC(C)[C@H](N)C(=O)O` [Valine], the “Taste thresholds (Kato et al. 1989), bitter” value is 0.4 (bitter) mg/mL.
